The text below walks through data of article PMC3177598 (Bioorganic & medicinal chemistry letters, 2008).

One test has as its system mAChRs (M1, M3 and M5). The following applies: in our hands; ref [8]; cited from earlier work.
For the next test, the target named is D2 (Homo sapiens, UniProt P14416). Briefly: D2 antagonist activity / D2 inhibition. In kind it is cell-based.
D2, sequence (P14416 whole entry): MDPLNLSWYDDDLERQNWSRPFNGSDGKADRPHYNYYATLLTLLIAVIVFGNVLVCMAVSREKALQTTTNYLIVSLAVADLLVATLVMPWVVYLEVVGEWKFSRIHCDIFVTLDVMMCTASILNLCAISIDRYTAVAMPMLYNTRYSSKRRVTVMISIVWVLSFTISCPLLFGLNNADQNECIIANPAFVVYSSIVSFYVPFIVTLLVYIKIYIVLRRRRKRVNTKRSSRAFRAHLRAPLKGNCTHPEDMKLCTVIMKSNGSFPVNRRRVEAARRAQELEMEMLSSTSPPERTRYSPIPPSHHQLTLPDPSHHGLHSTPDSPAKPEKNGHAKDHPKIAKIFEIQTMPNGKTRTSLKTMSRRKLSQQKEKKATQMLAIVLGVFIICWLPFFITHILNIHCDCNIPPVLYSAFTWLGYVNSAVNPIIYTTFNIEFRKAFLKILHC

For the compound `CC[C@@H]1SC2(CCN(C)CC2)NC1=O` [AF267B], the “mAChR subtypes activated (in words)” value in the test with mAChRs (M1, M3 and M5) was “activates M1, M3 and M5, and is M3 preferring”. Regarding `Cc1ccccc1CN1CCC(N2CCC(n3c(=O)[nH]c4cc(F)ccc43)CC2)CC1` [Compound 20b], the “D2 inhibition (in words)” value on D2 was “no significant D2 inhibition”. Still for that read-out and setting: with `Cc1ccccc1CN1CCC(N2CCC(n3c(=O)[nH]c4ccc(F)cc43)CC2)CC1` [Compound 20c] the entry was “no significant D2 inhibition”.
